Where “and” joins values, the source holds several entries; their conditions need not be identical. Equal entries are not always repeated. Toxic doses and inconclusive results are not listed. Rule for the calls: active = survival T/C of 150% or more; inactive = T/C below 125% in these data.
Test system: CD2F1 mice, L1210 leukemia ip, survival T/C
Test: NCI In Vivo Anticancer Drug Screen. Data for tumor model L1210 Leukemia (intraperitoneal) in CD2F1 (CDF1) mice
Conditions: higher = longer survival
Outline: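 Antitumor effect is scored in animals hosting a serially transplanted tumor. Values compare compound-dosed animals against vehicle-only controls as a simple quotient.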

[1] = endpoint: mean survival time, dose: 100.0 mg/kg/injection, schedule: Q01DX009 (ip), vehicle: saline with Tween-80
[2] = endpoint: mean survival time, dose: 100.0 mg/kg/injection, schedule: Q04DX003 (ip), vehicle: saline with Tween-80
[3] = endpoint: mean survival time, dose: 200.0 mg/kg/injection, schedule: Q01DX009 (ip), vehicle: saline with Tween-80
[4] = endpoint: mean survival time, dose: 200.0 mg/kg/injection, schedule: Q04DX003 (ip), vehicle: saline with Tween-80
[5] = endpoint: mean survival time, dose: 400.0 mg/kg/injection, schedule: Q04DX003 (ip), vehicle: saline with Tween-80
[6] = endpoint: mean survival time, dose: 12.5 mg/kg/injection, schedule: Q01DX009 (ip), vehicle: saline with Tween-80
[7] = endpoint: mean survival time, dose: 100.0 mg/kg/injection, schedule: Q01DX001 (ip), vehicle: saline with Tween-80
[8] = endpoint: mean survival time, dose: 200.0 mg/kg/injection, schedule: Q01DX001 (ip), vehicle: saline with Tween-80
[9] = endpoint: mean survival time, dose: 400.0 mg/kg/injection, schedule: Q01DX001 (ip), vehicle: saline with Tween-80
[10] = endpoint: mean survival time, dose: 400.0 mg/kg/injection, schedule: Q01DX009 (ip), vehicle: saline with Tween-80

Measured: T/C

O=c1c(O)c(O)c1=O.[NH2-].[NH2-].[NH2-].[NH2-].[NH2-].[Ru+5]
inactive: endpoint: median survival time, dose: 3.12 mg/kg/injection, schedule: Q01DX005 (ip), vehicle: saline 119 % of control | endpoint: median survival time, dose: 3.12 mg/kg/injection, schedule: Q01DX005 (ip), vehicle: suspension in saline 114 % of control | endpoint: median survival time, dose: 6.25 mg/kg/injection, schedule: Q01DX005 (ip), vehicle: saline 122 % of control | endpoint: median survival time, dose: 6.25 mg/kg/injection, schedule: Q01DX005 (ip), vehicle: suspension in saline 114 % of control | endpoint: median survival time, dose: 12.5 mg/kg/injection, schedule: Q01DX005 (ip), vehicle: suspension in saline 109 % of control | endpoint: median survival time, dose: 25.0 mg/kg/injection, schedule: Q01DX005 (ip), vehicle: saline 116 % of control

COC(CN(C)Cc1c[nH]c2ccccc12)OC
inactive: endpoint: mean survival time, dose: 75.0 mg/kg/injection, schedule: Q01DX001 (ip), vehicle: saline 107 % of control

NC(=S)NCc1ccccc1
inactive: [1] 89 % of control | [2] 105 % of control | [3] 91 % of control | [4] 101 % of control | [5] 112 % of control

CC1(C)N=C(N)N=C(N)N1c1ccc(OCc2ccc(C(=O)Nc3cccc(S(=O)(=O)F)c3)cc2)c(Cl)c1
inactive: endpoint: mean survival time, dose: 200.0 mg/kg/injection, schedule: Q04DX003 (ip), vehicle: saline 104 % of control

c1ccc(CNCCCNCc2ccccn2)nc1
inactive: endpoint: mean survival time, dose: 100.0 mg/kg/injection, schedule: Q01DX001 (ip), vehicle: saline 100 % of control | endpoint: mean survival time, dose: 200.0 mg/kg/injection, schedule: Q01DX001 (ip), vehicle: saline 100 % of control

O=NN(CS(=O)(=O)O)c1ccccc1
inactive: endpoint: mean survival time, dose: 50.0 mg/kg/injection, schedule: Q01DX009 (ip), vehicle: saline 101 % of control | endpoint: mean survival time, dose: 100.0 mg/kg/injection, schedule: Q01DX009 (ip), vehicle: saline 107 % of control | endpoint: mean survival time, dose: 200.0 mg/kg/injection, schedule: Q01DX009 (ip), vehicle: saline 95 % of control

CCOCCO
inactive: endpoint: mean survival time, dose: 5.0 mg/kg/injection, schedule: Q01DX001 (ip), vehicle: saline sonified 103 % of control | endpoint: mean survival time, dose: 10.0 mg/kg/injection, schedule: Q01DX001 (ip), vehicle: saline sonified 101 % of control | endpoint: mean survival time, dose: 20.0 mg/kg/injection, schedule: Q01DX001 (ip), vehicle: saline sonified 101 % of control

O=C(Nc1cccc2c(OC(=O)C(Cl)Cl)c(N=Nc3ccc(S(=O)(=O)Nc4nccs4)cc3)cc(N=Nc3ccc(S(=O)(=O)Nc4nccs4)cc3)c12)C(Cl)Cl (tested in a mixture with another compound)
inactive: endpoint: mean survival time, dose: 3.12 mg/kg/injection, schedule: Q01DX009 (ip), vehicle: saline with Tween-80 96 % of control and 101 % of control | endpoint: mean survival time, dose: 6.25 mg/kg/injection, schedule: Q01DX009 (ip), vehicle: saline with Tween-80 95 % of control and 101 % of control | [6] 96 % of control and 102 % of control | endpoint: mean survival time, dose: 25.0 mg/kg/injection, schedule: Q01DX009 (ip), vehicle: saline with Tween-80 101 % of control and 106 % of control | endpoint: mean survival time, dose: 50.0 mg/kg/injection, schedule: Q01DX009 (ip), vehicle: saline with Tween-80 101 % of control and 110 % of control | [1] 113 % of control and 112 % of control | endpoint: median survival time, dose: 100.0 mg/kg/injection, schedule: Q01DX009 (ip), vehicle: saline with Tween-80 113 % of control | endpoint: median survival time, dose: 200.0 mg/kg/injection, schedule: Q01DX009 (ip), vehicle: saline with Tween-80 106 % of control | endpoint: median survival time, dose: 400.0 mg/kg/injection, schedule: Q01DX009 (ip), vehicle: saline with Tween-80 100 % of control

[C-]1=CC2C=CC1C1[C-]=CC21.[Cl][Pd][Cl] (stereo not drawn)
inactive: [6] 94 % of control

Cc1cn(C2CC3OP(=O)(C(C)(C)C#N)OCC3O2)c(=O)[nH]c1=O (stereo not drawn)
inactive: endpoint: median survival time, dose: 12.5 mg/kg/injection, schedule: Q01DX005 (ip), vehicle: distilled water + Tween-80 101 % of control | endpoint: median survival time, dose: 25.0 mg/kg/injection, schedule: Q01DX005 (ip), vehicle: distilled water + Tween-80 100 % of control | endpoint: median survival time, dose: 50.0 mg/kg/injection, schedule: Q01DX005 (ip), vehicle: distilled water + Tween-80 103 % of control | endpoint: median survival time, dose: 100.0 mg/kg/injection, schedule: Q01DX005 (ip), vehicle: distilled water + Tween-80 100 % of control | endpoint: median survival time, dose: 200.0 mg/kg/injection, schedule: Q01DX005 (ip), vehicle: distilled water + Tween-80 97 % of control

C=CCc1cc(OC)ccc1OC(C)=O
inactive: [2] 113 % of control | [4] 97 % of control | [5] 105 % of control

[O-][n+]1ccnc2c1cnn2C1OC(CO)C(O)C1O (stereo not drawn)
inactive: endpoint: mean survival time, dose: 12.5 mg/kg/injection, schedule: Q04DX003 (ip), vehicle: water 104 % of control | endpoint: mean survival time, dose: 25.0 mg/kg/injection, schedule: Q04DX003 (ip), vehicle: water 104 % of control | endpoint: mean survival time, dose: 50.0 mg/kg/injection, schedule: Q04DX003 (ip), vehicle: water 101 % of control | endpoint: mean survival time, dose: 100.0 mg/kg/injection, schedule: Q04DX003 (ip), vehicle: water 101 % of control | endpoint: mean survival time, dose: 200.0 mg/kg/injection, schedule: Q04DX003 (ip), vehicle: water 101 % of control

Cn1ccccc1=S
inactive: [7] 108 % of control | [8] 107 % of control | [9] 103 % of control

O=c1c2ccccc2sc2ccc3c(ccc4sc5ccccc5c(=O)c43)c12
inactive: [7] 93 % of control | [8] 100 % of control | [9] 92 % of control

CC1CN1P(=O)(N1CC1C)N1CC1C (stereo not drawn)
inactive: endpoint: mean survival time, dose: 9.5 mg/kg/injection, schedule: Q01DX001 (ip), vehicle: saline 101 % of control | endpoint: mean survival time, dose: 19.0 mg/kg/injection, schedule: Q01DX001 (ip), vehicle: saline 106 % of control | endpoint: mean survival time, dose: 38.0 mg/kg/injection, schedule: Q01DX001 (ip), vehicle: saline 117 % of control

CC(=O)Nc1cc(C)ccc1O
inactive: [1] 98 % of control | [2] 96 % of control | [3] 95 % of control | [4] 104 % of control | [10] 87 % of control | [5] 90 % of control

O=C(NC(=S)Nc1cc(Cl)ccc1O)c1cccc(Br)c1
inactive: [7] 86 % of control and 89 % of control | [1] 96 % of control and 101 % of control | endpoint: mean survival time, dose: 100.0 mg/kg/injection, schedule: Q04DX002 (ip), vehicle: saline with Tween-80 89 % of control and 103 % of control | [2] 91 % of control | [8] 86 % of control | [3] 97 % of control and 98 % of control | endpoint: mean survival time, dose: 200.0 mg/kg/injection, schedule: Q04DX002 (ip), vehicle: saline with Tween-80 89 % of control and 100 % of control | [4] 96 % of control | [9] 86 % of control | [10] 116 % of control and 101 % of control | endpoint: mean survival time, dose: 400.0 mg/kg/injection, schedule: Q04DX002 (ip), vehicle: saline with Tween-80 94 % of control and 95 % of control | [5] 95 % of control

O=C(NC(=O)c1ccccc1)Nc1ccccc1
inactive: [1] 96 % of control | [2] 92 % of control | [4] 90 % of control | [10] 94 % of control | [5] 90 % of control

COc1ccc(C(OCC2OC(n3ccc(NC(=O)c4ccccc4)nc3=O)C(O)C2O)(c2ccccc2)c2ccccc2)cc1 (stereo not drawn)
inactive: endpoint: median survival time, dose: 12.5 mg/kg/injection, schedule: Q01DX005 (ip), vehicle: saline with Tween-80 100 % of control | endpoint: median survival time, dose: 25.0 mg/kg/injection, schedule: Q01DX005 (ip), vehicle: saline with Tween-80 104 % of control | endpoint: median survival time, dose: 50.0 mg/kg/injection, schedule: Q01DX005 (ip), vehicle: saline with Tween-80 104 % of control | endpoint: median survival time, dose: 100.0 mg/kg/injection, schedule: Q01DX005 (ip), vehicle: saline with Tween-80 98 % of control | endpoint: median survival time, dose: 200.0 mg/kg/injection, schedule: Q01DX005 (ip), vehicle: saline with Tween-80 95 % of control

COC(=S)C(c1ccccc1)(c1ccccc1)c1ccccc1
inactive: endpoint: mean survival time, dose: 100.0 mg/kg/injection, schedule: Q04DX002 (ip), vehicle: Klucel (hydroxypropylcellulose) (HPC) 93 % of control | endpoint: mean survival time, dose: 200.0 mg/kg/injection, schedule: Q04DX002 (ip), vehicle: Klucel (hydroxypropylcellulose) (HPC) 89 % of control | endpoint: mean survival time, dose: 400.0 mg/kg/injection, schedule: Q04DX002 (ip), vehicle: Klucel (hydroxypropylcellulose) (HPC) 89 % of control

O=C(O)CC(=O)O.[NH-]CC(O)CN(Cc1ccccc1)CC(O)CN.[Pt+2] (stereo not drawn)
inactive: endpoint: median survival time, dose: 2.5 mg/kg/injection, schedule: Q04DX003 (ip), vehicle: water 102 % of control | endpoint: median survival time, dose: 5.0 mg/kg/injection, schedule: Q04DX003 (ip), vehicle: water 101 % of control | endpoint: median survival time, dose: 10.0 mg/kg/injection, schedule: Q04DX003 (ip), vehicle: water 108 % of control | endpoint: median survival time, dose: 12.5 mg/kg/injection, schedule: Q04DX003 (ip), vehicle: water 104 % of control | endpoint: median survival time, dose: 20.0 mg/kg/injection, schedule: Q04DX003 (ip), vehicle: water 111 % of control | endpoint: median survival time, dose: 25.0 mg/kg/injection, schedule: Q04DX003 (ip), vehicle: water 102 % of control | endpoint: median survival time, dose: 50.0 mg/kg/injection, schedule: Q04DX003 (ip), vehicle: water 104 % of control | endpoint: median survival time, dose: 100.0 mg/kg/injection, schedule: Q04DX003 (ip), vehicle: water 108 % of control

Cc1ccc(C(C#N)Nc2ccccc2)cc1 (stereo not drawn)
inactive: [1] 103 % of control | [2] 100 % of control | [3] 88 % of control | [4] 91 % of control | [10] 93 % of control | [5] 97 % of control

Source: PubChem BioAssay AID256 (DTP/NCI, 2004)
